Measurements as given in article PMC7938888, “Antidepressant drugs act by directly binding to TRKB neurotrophin receptors” (Cell, 2021).

B1: BDNF: brain-derived neurotrophic factor, TRKB ligand (protein, UniProt P23560 19-247, looked up)
Neurotrophic factor BDNF …: APMKEANIRGQGGLAYPGVRTHGTLESVNGPKAGSRGLTSLADTFEHVIEELLDEDQKVRPNEENNKDADLYTSRVMLSSQVPLEPPLLFLLEEYKNYLDAANMSMRVRRHSDPARRGELSVCDSISEWVTAADKKTAVDMSGGTVTVLEKVPVSKGQLKQYFYETKCNPMGYTKEGCRGIDKRHWNSQCRTTQSYVRALTMDSKKRIGWRFIRIDTSCVCTLTIKRGR

What was measured:
[1] = system: TRKB:PLC-γ1 interaction; assay: TRKB:PLC-γ1 interaction ELISA in cortical cells; assay type: cell-based, rat; settings: rat cortical cells
Summary of the method: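 Sandwich ELISA on cultured cortical cell lysates: plates coated with anti-TRKB or anti-PLC-γ1 capture antibody, samples bound overnight at 4°C, then detected with anti-pY or anti-PLC-γ1 antibody plus HRP-conjugated secondary or streptavidin. Read-out is ECL chemiluminescence.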

[2] = biological target: TRKB (Mus musculus, UniProt P15209); assay: Cell-free ligand binding assay on immobilised TRKB from HEK293T lysates; set-up: wild-type GFP-tagged full length TRKB or the GFP-tagged Y433F TRKB mutant; host or cells: HEK293T; settings: for displacement of biotinylated FLX from TRKB: biotinylated FLX 1 μM
[3] = system: mice; assay: Contextual fear conditioning and extinction; assay type: in vivo, mouse
Description: Contextual fear conditioning: this test was modified from previous studies ([Karpova et al., 2011]). Briefly, adult male and female mice (18-22 weeks old) were conditioned to 5 scrambled foot shocks (0.6mA/2 s) during the 8 min session (arena: 23 × 23 × 35cm) under constant illumination (100 lux). During the extinction trials, the animals were exposed to the same context where the shocks were delivered and the time spent in freezing during the 8 min session was automatically determined by the software (TSE Systems, Germany).

[4] = system: GFP-TRKB.Y433F; assay: dSTORM/TIRF of GFP-TRKB.Y433F clusters on MG87.TRKB cells; assay type: cell-based, mouse; settings: BDNF 10 ng/ml, FLX 10 μM, CHOL 20 μM, KET 10 μM; 15 min
Description: For direct stochastic optical reconstruction microscopy (dSTORM) MG87.TRKB cells were grown on cell view 35mm dishes with glass bottom (Greiner) coated with poly-L-lysine (Sigma). […] Briefly, cells were fixed 24 hours post transfection with 4% PFA for 20 minutes, washed three times for 5 min with 1x PBS and incubated in blocking buffer (1% BSA, 0.1% gelatin, 5% goat serum, 0.1% Triton X-100 and 0.05% Tween-20 in PBS; all from Sigma) for 1 hour. The primary antibody against GFP (Abcam, #ab290) was diluted 1:100 and incubated overnight at +4°C, while the secondary antibody Alexa Fluor-conjugated goat-anti-rabbit 647 (Invitrogen) was diluted 1:500 and incubated at room temperature for 1 hour. The dishes were stored in +4°C in 1x PBS no longer than 48 hours before imaging.
During imaging, cells were maintained in blinking buffer (10% glucose, 0.07% cysteamine, 0.75 mg/ml glucose oxidase and 0.04 mg/ml catalase in 0.1 M Tris buffer, pH 7.8-8; all reagents from Sigma-Aldrich), which was freshly prepared and changed every hour. Imaging was performed in TIRF mode (TIRF angle 89.3 calibrated with ring-TIRF at least twice per sample) to specifically image the fluorophores at the plasma membrane. A GE DeltaVision OMX SR system (GE Healthcare) equipped with an Apo N 60x/1.49 oil objective and a sCMOS camera was used to acquire the images. The 640 nm diode laser was used at 100% of power to excite the Alexa 647 fluorophores while the 405 nm laser was adjusted until approximately 50% of power in order to maintain the blinking throughout the imaging session. For each cell, 35000 frames were acquired, and the localization map of single fluorophores was reconstructed with SoftWoRx 7.0 software (GE Healthcare). For the localization map, the first 1000 frames approximately were discarded and the reconstruction parameters were maintained identical for all the samples.
Reconstruction parameters: For the localization of all the blinking events in the dataset, the point spread function size factor was set at 1.550 with a local maximum factor of 0.05. Drift correction was adjusted dividing the frames into 20 groups. Tracking of the fluorophores was performed with a maximum localization precision of 100 nm without fiducial markers. The final localization map of the fluorophores identified was built with a reconstruction pixel size of 10 nm and localization precision set at 5 and 100 nm respectively for the minimum and the maximum, and a fluorophore persistence threshold set at 3 frames.
The analysis of the reconstructed images was performed in Fiji. Depending on the size of picture, 5 or 10 representative regions of interest (ROIs) of 2x1 μm were blindly chosen per cell and used for particle analysis of the TRKB-positive clusters. […]

[5] = system: GFP-TRKB; assay: FRAP of GFP-TRKB in dendritic spines of hippocampal neurons; assay type: cell-based, rat; settings: BDNF 20 ng/mL, FLX 1 μM, KET 10 μM; 15 min pretreatment
Description: For the fluorescence recovery after photobleaching (FRAP) experiments, E18 rat embryo hippocampal cells were plated onto glass coverslips coated with poly-L-lysine (Sigma-Aldrich) in 4-well cell culture plates at a density of 200.000 cells/well. The cultures were incubated at +37°C in serum-free Neurobasal medium (supplemented with 2% B27, 1% L-glutamine and 1% ampicillin) for approximately 2 weeks (DIV 14-16), renewing half of the growth media weekly. Then, they were transfected with Lipofectamine 2000 (Invitrogen) in order to overexpress GFP-tagged TRKB constructs (TRKB.WT or TRKB.Y433F). The cultures were incubated with the transfection mix (per well: 50ul neurobasal medium, 1ul Lipofectamine 2000, 1ug plasmid DNA) in serum-free media for 1.5 hours, followed by 3x medium washes and returned to the original growth medium after that. The cells were left at +37°C o/n to overexpress the constructs ([Koskinen et al., 2012]). Next day, FRAP was performed with a confocal microscope (Zeiss LSM 710, Carl Zeiss AG) adapted for live cell imaging with a chamber set at +37°C and 5%CO2 (Zeiss Temp Module system, Carl Zeiss AG). Coverslips with the cultured hippocampal neurons were carefully transferred to 35mm Petri dishes with warm HBSS medium without phenol red or serum to avoid sources of background fluorescence. After a 10 minutes adaptation period in the microscope chamber to avoid focus drift caused by temperature fluctuations of the stage and objective, dendritic shafts or spines (spine head diameter = ∼1um) were localized with a 63x/0.90 NA dipping water objective. Picture format was 512x512 pixels. The nominal speed to capture images was set to 9 (pixel dwell 3.15 μseconds, taking approximately 0.5 s to finish a scan), and the pinhole aperture was set to completely open to obtain a strong fluorescent signal ([Koskinen et al., 2012]; [Zheng et al., 2011]). Once a region of interest (ROI) was selected with a circle that contained the whole spine, it was bleached to establish the FRAP baseline. […]

[6] = system: pTRKB.Y816; assay type: cell-based, rat; settings: 10 μM/15 min
Description: The TRKB:pY (phosphorylated TRKB), TRKB:PLC-γ1, PLC-γ1:pTRKB.Y816 interactions and were determined by ELISA, based on the general method described in literature ([Antila et al., 2014]; [Fred et al., 2019]), with minor adjustments. Briefly, white 96-well plates (OptiPlate 96F-HB, Perkin Elmer) were coated with capturing anti-TRKB or PLC-γ1 antibody (1:1000) in carbonate buffer (pH = 9.8) overnight (ON) at 4°C. Following a blocking step with 2%BSA in TBS-T (2 h, RT), samples were incubated ON at 4°C. The incubation with antibody against pTRKB.Y816, PLC-γ1 or pY (1:2000, ON, 4°C) was followed by HRP-conjugated anti-Rb IgG (1:5000, 2h, RT) or HRP-conjugated streptavidin (1:10000, 2h, RT). Finally, the chemiluminescent signal generated by the reaction with ECL was analyzed in a plate reader (Varioskan Flash, Thermo Scientific).
The levels of total and phosphorylated TRKB at Y515 or Y816 in MG87.TRKB cells, challenged with BDNF, as well as the levels of PLCg1 and pTRKB.Y816 were measured by western-blotting ([Rantamäki et al., 2007]).

[7] = wild-type mice, FLX 15 mg/kg for 2 weeks, KET 10 mg/kg i.p. after conditioning and 2 h before each extinction trial

Sequence of TRKB (P15209 32-821): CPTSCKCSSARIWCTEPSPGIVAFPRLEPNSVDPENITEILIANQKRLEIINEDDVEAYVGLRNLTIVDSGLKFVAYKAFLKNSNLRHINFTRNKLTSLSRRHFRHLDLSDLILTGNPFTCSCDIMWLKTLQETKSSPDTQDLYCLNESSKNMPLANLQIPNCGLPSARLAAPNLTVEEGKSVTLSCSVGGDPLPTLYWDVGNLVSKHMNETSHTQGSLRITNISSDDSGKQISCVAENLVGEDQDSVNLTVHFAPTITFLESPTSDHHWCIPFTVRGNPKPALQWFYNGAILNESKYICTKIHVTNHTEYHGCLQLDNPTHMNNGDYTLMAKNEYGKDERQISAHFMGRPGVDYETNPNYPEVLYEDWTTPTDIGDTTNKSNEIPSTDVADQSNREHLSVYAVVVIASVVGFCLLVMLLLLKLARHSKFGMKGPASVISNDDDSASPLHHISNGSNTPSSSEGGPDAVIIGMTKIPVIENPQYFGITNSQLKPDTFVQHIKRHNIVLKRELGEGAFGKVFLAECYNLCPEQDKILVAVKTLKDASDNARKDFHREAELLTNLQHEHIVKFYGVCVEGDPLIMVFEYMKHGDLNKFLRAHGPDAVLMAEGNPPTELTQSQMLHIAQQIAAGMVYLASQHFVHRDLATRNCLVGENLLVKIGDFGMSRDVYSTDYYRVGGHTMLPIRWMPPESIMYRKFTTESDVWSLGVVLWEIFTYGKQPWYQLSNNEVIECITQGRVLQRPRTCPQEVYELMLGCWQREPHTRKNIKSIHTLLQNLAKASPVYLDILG

Molecule	TRKB interaction with PLC-γ1 [1]	Ki [2] [µM]	displacement of biotinylated FLX from TRKB [2]	extinction of conditioned fear ([3]; TRKB.Y433F mice)	extinction of conditioned fear [3, 7]	size of clusters of GFP-TRKB.Y433F at the plasma membrane [4]	recovery of GFP-TRKB fluorescence in dendritic spines after bleaching [5]	pTRKB at Y816 [6]	extinction of conditioned fear ([3]; pravastatin-FLX co-treated mice)	effect on interaction of biotinylated FLX and R,R-HNK with TRKB [2]	Kd ([2]; TRKB.wt, read-out: binding affinity of BDNF) [pM]
CNC1(c2ccccc2Cl)CCCCC1=O (stereo not drawn) [KET, ketamine]	increased TRKB interaction with PLC-γ1	12.3	readily displaced	no increase in fear extinction	promoted extinction of conditioned fear	not clusters of GFP-TRKB.Y433F mutants	promoted recovery of GFP-TRKB fluorescence in dendritic spines	enhanced pTRKB at Y816			
CNCCC(Oc1ccc(C(F)(F)F)cc1)c1ccccc1 (stereo not drawn) [FLX, fluoxetine]	increased TRKB interaction with PLC-γ1			no increase in fear extinction	promoted extinction of conditioned fear	not clusters of GFP-TRKB.Y433F mutants	promoted recovery of GFP-TRKB fluorescence in dendritic spines	enhanced pTRKB at Y816	no increase in fear extinction		
CC(C)CCC[C@@H](C)[C@H]1CC[C@H]2[C@@H]3CC=C4C[C@@H](O)CC[C@]4(C)[C@H]3CC[C@]12C [CHOL, cholesterol]						not clusters of GFP-TRKB.Y433F mutants				increased the interaction of these compounds with TRKB	
B1			failed to displace			not clusters of GFP-TRKB.Y433F mutants	rapid recovery of GFP-TRKB fluorescence in spines				3.1
